# Active and inactive are the calls of the source.
# Assays:
# Large T antigen = Large T antigen (Simian virus 40, UniProt P03070); format: functional, Betapolyomavirus macacae;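 also: Confirmatory-stage PubChem screen for compounds that inhibit SV40 T antigen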
# [1] = Luminescence Cell-Based Dose Retest to Confirm Inhibitors of Cancer Stem Cells. [Related pubchem assays (depositor defined):AID2717, AID2721]; format: functional; settings: Homo sapiens
# [2] = luciferase reporter signal suppression in cells – H4 neuroglioma cells, luminescence, dose response (AID 1990); format: functional, cell-based
# [3] = Luminescence Cell-Based Dose Response HTS to Identify Inhibitors of 5'UTR Stem-Loop Driven Prion Protein mRNA Translation in H4 Neuroglioblastoma Cells. [Related pubchem assays: 1827 (Project Summary), 1813 (Primary HTS)]; format: functional
# [4] = alpha-synuclein stem-loop luciferase translation blockers – H4 neuroglioma cells, luminescence, confirmation (AID 1988); format: functional, cell-based
# [5] = viability of PTEN-deleted HCT116 cells – cell-based, HCT116 PTEN knockout, dose response (AID 1047); format: functional;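 also: HCT116 colon tumor cells with PTEN knocked out; cells exposed to compound for 60 hours before readout; potency for loss of cell viability measured by luminescence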
# [6] = viability of HCT116 lacking mutant beta-catenin – cell-based, human colon tumor, dose response (AID 1045); format: functional;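 also: HCT116 colon tumor cells with beta catenin knocked out; cells exposed to compound for 60 hours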
# [7] = molecular target: T1, Rac GTPase-activating protein 1 (Homo sapiens, UniProt Q9H0H5); assay: blockers of MgcRacGAP-driven Rac1 GTP hydrolysis – biochemical, ADP Hunter fluorescence, primary and confirmatory, confirmation (AID 624330); format: functional
# T1 sequence (Q9H0H5 whole entry): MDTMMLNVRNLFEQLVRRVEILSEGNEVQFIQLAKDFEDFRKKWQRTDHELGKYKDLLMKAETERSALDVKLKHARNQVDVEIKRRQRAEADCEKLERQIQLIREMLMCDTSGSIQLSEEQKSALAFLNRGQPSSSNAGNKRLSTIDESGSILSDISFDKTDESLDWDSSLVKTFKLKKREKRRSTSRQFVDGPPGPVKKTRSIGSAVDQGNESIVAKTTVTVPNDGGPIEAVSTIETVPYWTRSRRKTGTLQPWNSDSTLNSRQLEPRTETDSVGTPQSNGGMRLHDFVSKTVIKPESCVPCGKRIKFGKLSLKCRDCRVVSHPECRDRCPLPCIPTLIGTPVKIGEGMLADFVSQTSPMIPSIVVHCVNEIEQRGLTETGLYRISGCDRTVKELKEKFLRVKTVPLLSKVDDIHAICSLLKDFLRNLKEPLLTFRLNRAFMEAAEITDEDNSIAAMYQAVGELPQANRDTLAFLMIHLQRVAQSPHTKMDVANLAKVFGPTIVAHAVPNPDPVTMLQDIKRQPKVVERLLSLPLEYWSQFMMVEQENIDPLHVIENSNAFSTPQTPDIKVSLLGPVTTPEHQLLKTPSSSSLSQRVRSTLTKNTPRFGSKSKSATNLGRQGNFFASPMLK
# [8] = molecular target: T2, Heat shock factor protein 1 (Mus musculus, UniProt P38532); assay: decrease of HSF1-responsive luciferase luminescence – cell-based, NIH3T3, dose retest, confirmation (AID 2382); format: functional;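 also: NIH3T3 fibroblasts with HSF1-driven luciferase reporter stressed by proteasome inhibitor MG132; luminescence from HSF1-driven luciferase expression after 8 hours of MG132 stress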
# T2 sequence (P38532 whole entry): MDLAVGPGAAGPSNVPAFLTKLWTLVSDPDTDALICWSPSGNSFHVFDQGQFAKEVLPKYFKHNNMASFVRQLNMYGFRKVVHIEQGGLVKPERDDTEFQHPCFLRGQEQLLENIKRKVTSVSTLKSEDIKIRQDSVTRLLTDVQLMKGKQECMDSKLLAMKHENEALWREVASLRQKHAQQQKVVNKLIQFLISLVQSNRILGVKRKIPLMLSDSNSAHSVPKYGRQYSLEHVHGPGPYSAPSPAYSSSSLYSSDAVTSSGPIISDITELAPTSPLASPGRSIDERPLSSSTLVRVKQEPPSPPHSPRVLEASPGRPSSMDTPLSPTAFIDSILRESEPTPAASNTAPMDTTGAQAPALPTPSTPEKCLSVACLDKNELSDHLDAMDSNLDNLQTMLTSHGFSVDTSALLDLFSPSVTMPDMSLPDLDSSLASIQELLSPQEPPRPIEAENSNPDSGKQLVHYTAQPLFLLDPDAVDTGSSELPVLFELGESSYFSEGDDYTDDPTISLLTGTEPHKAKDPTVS
# [9] = molecular target: T3, Corticotropin-releasing factor receptor 2/Corticotropin-releasing factor-binding protein (Homo sapiens, UniProt P24387+Q13324); assay: Dose Response confirmation of uHTS hits for small molecule antagonists of the CRF-binding protein and CRF-R2 receptor complex.; format: functional; settings: read-out: IC50_Mean
# T3 sequence (Q13324 whole entry): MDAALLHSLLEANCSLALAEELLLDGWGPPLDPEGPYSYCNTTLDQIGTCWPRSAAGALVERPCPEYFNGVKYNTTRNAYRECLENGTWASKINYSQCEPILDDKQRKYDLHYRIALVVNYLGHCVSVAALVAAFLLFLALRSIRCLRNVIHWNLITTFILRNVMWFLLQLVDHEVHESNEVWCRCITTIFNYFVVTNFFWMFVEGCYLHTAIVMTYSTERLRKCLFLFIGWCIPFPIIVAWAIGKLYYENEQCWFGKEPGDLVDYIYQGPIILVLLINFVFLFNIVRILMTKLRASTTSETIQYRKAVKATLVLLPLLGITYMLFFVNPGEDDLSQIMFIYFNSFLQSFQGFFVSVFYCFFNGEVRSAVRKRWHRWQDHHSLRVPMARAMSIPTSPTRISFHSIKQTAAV
# T3 sequence (P24387 whole entry): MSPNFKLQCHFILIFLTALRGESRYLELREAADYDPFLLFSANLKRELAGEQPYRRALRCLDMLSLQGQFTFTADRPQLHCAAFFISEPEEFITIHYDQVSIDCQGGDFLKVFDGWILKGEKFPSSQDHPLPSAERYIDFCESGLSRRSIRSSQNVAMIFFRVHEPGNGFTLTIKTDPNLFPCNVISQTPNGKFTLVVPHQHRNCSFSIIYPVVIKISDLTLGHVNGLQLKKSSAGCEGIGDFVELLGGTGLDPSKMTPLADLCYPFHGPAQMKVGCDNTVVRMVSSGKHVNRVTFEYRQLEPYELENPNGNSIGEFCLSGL
# [10] = molecular target: T3, Corticotropin-releasing factor receptor 2/Corticotropin-releasing factor-binding protein; assay: activators of CRF receptor 2 with binding protein – uHTS hits, confirmation (AID 602473); format: functional; settings: read-out: EC50_Mean
# Cytochrome P450 1A2 = molecular target: T4, Cytochrome P450 1A2 (Homo sapiens, UniProt P05177);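 also: PubChem cytochrome P450 panel assay, CYP1A2 panel member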
# T4 sequence (P05177 whole entry): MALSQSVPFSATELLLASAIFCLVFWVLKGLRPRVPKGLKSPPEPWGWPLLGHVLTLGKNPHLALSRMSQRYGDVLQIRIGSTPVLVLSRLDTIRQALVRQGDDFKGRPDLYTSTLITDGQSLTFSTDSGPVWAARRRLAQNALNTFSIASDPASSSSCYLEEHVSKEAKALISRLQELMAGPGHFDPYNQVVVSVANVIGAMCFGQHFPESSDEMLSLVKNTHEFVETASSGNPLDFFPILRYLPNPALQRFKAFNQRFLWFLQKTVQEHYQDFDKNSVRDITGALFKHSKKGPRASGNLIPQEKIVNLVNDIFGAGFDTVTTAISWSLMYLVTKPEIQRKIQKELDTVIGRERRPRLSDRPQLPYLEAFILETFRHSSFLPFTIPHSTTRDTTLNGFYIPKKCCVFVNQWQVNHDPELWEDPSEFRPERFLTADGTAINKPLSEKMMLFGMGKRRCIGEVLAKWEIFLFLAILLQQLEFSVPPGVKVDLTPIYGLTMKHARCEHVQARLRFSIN
# Cytochrome P450 2C9 = Cytochrome P450 2C9 (Homo sapiens, UniProt P11712)
# Cytochrome P450 2C19 = Cytochrome P450 2C19 (Homo sapiens, UniProt P33261); assay: Cytochrome panel assay with activity outcomes. Panel member name: p450-cyp2c19 Compounds with AC50 equal or less than 10 uM are considered active; format: functional; settings: read-out: AC50
# [11] = molecular target: T2, Heat shock factor protein 1; assay: enhancement of HSF1-driven luciferase signal – cell-based, NIH3T3, luminescence, dose retest, confirmation (AID 435004); format: functional;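 also: stress induced by proteasome inhibitor MG132 added 30 min after compound; luciferase reporter driven by HSF1 response element in NIH3T3 cells; actives raise luminescence as potentiators of the MG132 stress response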
# [12] = Luminescence Cell-Based Dose Confirmation HTS to Identify Activators of 5'UTR Stem-Loop Driven Alpha-Synuclein mRNA Translation in H4 Neuroglioblastoma Cells. [Related pubchem assays: 1829 (Project Summary), 1814 (Primary HTS)]; format: functional
# [13] = Luminescence Cell-Based Dose Response HTS to Identify Activators of Luciferase Translation or Activity in H4 […] Cells. [Related pubchem assays: 1829 (Project Summary), 1814 (Primary HTS)]; format: functional
# H4 = assay: Luminescence Cell-Based Dose Response HTS to Identify Activators of 5'UTR Stem-Loop Driven Prion Protein mRNA Translation in H4 Neuroglioblastoma Cells. [Related pubchem assays: 1829 (Project Summary), 1814 (Primary HTS)]; format: functional; settings: Homo sapiens
# INS1 = assay: INS-1E survival protection against cytokine death – cell-based, luminescence, retest, dose response (AID 449756); format: functional; settings: Rattus norvegicus;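 also: cell death triggered by IL-1 beta plus TNF-alpha plus IFN-gamma mixture; protective hits raise ATP signal compared with cytokine alone wells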
# Large T antigen, sequence (P03070 whole entry): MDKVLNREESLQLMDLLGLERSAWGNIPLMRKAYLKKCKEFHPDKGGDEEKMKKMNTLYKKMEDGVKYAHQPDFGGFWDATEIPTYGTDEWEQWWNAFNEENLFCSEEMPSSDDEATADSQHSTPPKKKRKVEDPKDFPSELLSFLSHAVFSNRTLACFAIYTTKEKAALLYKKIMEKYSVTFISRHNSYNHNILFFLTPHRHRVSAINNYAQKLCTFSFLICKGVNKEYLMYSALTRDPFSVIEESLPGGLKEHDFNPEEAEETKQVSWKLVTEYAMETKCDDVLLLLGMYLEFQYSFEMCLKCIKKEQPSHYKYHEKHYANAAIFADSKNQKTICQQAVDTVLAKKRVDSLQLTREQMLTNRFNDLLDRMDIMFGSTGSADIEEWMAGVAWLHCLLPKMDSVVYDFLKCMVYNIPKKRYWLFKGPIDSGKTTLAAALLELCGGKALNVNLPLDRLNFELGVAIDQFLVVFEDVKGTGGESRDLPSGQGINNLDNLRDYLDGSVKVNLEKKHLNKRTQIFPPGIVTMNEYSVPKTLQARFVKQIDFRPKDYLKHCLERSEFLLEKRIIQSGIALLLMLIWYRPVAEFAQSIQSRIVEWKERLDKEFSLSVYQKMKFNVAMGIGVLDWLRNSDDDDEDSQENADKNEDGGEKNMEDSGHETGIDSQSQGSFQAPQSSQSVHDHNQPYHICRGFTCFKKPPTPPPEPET
# Cytochrome P450 2C9, sequence (P11712 whole entry): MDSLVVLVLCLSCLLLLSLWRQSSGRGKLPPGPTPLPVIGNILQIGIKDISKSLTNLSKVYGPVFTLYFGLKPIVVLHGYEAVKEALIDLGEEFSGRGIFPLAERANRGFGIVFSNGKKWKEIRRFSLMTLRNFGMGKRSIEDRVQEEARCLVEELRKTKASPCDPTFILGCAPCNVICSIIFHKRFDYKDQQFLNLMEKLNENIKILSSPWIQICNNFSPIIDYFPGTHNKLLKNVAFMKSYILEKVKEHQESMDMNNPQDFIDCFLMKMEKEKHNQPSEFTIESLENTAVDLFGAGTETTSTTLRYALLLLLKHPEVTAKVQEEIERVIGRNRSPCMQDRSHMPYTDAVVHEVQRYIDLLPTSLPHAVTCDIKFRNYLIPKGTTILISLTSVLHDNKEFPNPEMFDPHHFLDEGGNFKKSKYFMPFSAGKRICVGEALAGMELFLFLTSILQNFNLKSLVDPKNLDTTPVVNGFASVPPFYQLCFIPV
# Cytochrome P450 2C19, sequence (P33261 whole entry): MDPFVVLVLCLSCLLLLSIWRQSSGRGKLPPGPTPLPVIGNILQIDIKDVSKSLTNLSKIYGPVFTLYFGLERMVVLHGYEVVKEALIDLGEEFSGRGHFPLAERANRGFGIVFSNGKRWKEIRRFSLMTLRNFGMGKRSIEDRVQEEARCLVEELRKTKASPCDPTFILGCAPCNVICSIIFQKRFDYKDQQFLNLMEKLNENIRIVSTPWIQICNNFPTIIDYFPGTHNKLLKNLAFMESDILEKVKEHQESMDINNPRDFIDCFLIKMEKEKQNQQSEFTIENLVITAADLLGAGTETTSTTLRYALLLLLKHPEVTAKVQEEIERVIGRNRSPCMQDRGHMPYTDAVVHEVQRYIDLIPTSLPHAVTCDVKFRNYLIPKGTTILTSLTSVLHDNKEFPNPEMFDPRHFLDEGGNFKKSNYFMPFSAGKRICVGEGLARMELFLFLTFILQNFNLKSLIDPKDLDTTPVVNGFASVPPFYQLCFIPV
smiles,measurement,setting,value
O=C(c1ccc([N+](=O)[O-])cc1)N1CCN(c2cccc3[nH]ccc23)CC1,IC50,Large T antigen,25.9 µM (active)
CN(CC(=O)Nc1ccc(Cl)c(Cl)c1)C(=O)C12CC3CC(CC(C3)C1)C2,AC50,[1],5.44 µM (active)
COc1ccc(C2=Nn3c(nnc3-c3ccncc3)SC2)cc1OC,EC50,[2],12.4 µM (active)
same,EC50,[3],14.2 µM (active)
same,EC50,[4],50.8 µM (active)
same,EC50,[5],19.7 µM (active)
same,EC50,[6],336 µM (active)
Oc1ccc(N2CCN(C(=S)NCCc3ccccc3)CC2)cc1,IC50,Large T antigen,8.73 µM (active)
same,IC50,[7],26.1 µM (active)
CCOc1ccc(NCc2nnc(SCC(=O)Nc3cc(C)on3)n2-c2ccc(OC)cc2)cc1,EC50,[8],> 195 µM (not active)
same,IC50,Large T antigen,30.1 µM (active)
COc1cc(/C=C(\C#N)C(=O)N2CCCCC2)ccc1O,IC50,Large T antigen,13 µM (active)
C=CCOc1cccc(CNc2ccc3[nH]c(O)nc3c2)c1,IC50,Large T antigen,14.4 µM (active)
same,IC50,[9],> 47.1 µM (inactive)
same,EC50,[10],> 53 µM (inactive)
O=c1c(Cl)c(NCc2ccccc2Cl)cnn1C12CC3CC(CC(C3)C1)C2,AC50,[1],0.508 µM (active)
COc1ccccc1CN(Cc1cc2cc(C)cc(C)c2nc1O)Cc1nnnn1CC1CCCO1 (stereo not given),EC50,[5],44.9 µM (active)
same,EC50,[6],54.9 µM (active)
same,AC50,Cytochrome P450 1A2,20 µM (inconclusive)
same,AC50,Cytochrome P450 2C9,14.1 µM (inconclusive)
Cc1ccc(CNc2ccc3c(c2)ncn3C(C)C)cc1,IC50,Large T antigen,42.6 µM (active)
Cc1ccc(NC(=O)/C(=C\c2cccc([N+](=O)[O-])c2)NC(=O)c2cccs2)cc1,EC50,[5],22.8 µM (active)
same,EC50,[6],24.1 µM (active)
same,AC50,Cytochrome P450 2C19,17.8 µM (inconclusive)
same,AC50,Cytochrome P450 2C9,39.8 µM (inconclusive)
CCCCn1c(-c2cccc(C)c2)nc2cc3nc(O)c(C(C)C)nc3cc21,AC50,[1],6.63 µM (active)
CCOc1ccc2ncc(S(=O)(=O)c3ccc(C)cc3)c(N3CCC4(CC3)OCCO4)c2c1,EC50,[5],40.5 µM (active)
same,EC50,[6],74 µM (active)
same,EC50,[11],> 260 µM (inactive)
CCCc1ccc(-c2cc(NC(=O)CSc3n[nH]c(N)n3)n(-c3ccccc3)n2)cc1,EC50,[12],7.46 µM (active)
same,EC50,[13],6.51 µM (active)
same,EC50,H4,53.5 µM (active)
same,AC50,[1],4.18 µM (active)
O=C(Nc1nccs1)c1ccc(COc2ccccc2Br)o1,AC50,[1],3.14 µM (active)
CCCc1cc(-c2[nH]nc(C(=O)OCC)c2-c2cscn2)c(O)cc1O,IC50,Large T antigen,23.4 µM (active)
NNC(=O)C(=O)Nc1ccc(O)cc1,IC50,Large T antigen,9.75 µM (active)
COC(=O)C1=C(c2cccc(C#N)c2)C[C@@H]2CC[C@H]1N2C(=O)NC1Cc2ccccc2C1,AC50,[1],> 195 µM (inactive)
Cc1cc(NC(=O)c2cc(-c3ccncc3)nc3ccccc23)ccc1Br,AC50,[1],4.23 µM (active)
Nc1ccccc1/N=C/c1ccc(-c2cccc(Cl)c2)o1,AC50,[1],3.68 µM (active)
Cc1cc(SCC(=O)N/N=C/c2ccc(O)c(O)c2)nc2ccccc12,IC50,Large T antigen,6.59 µM (active)
CCCCCCSc1cccc(-c2nc3ccccn3c2NCc2ccccc2)c1,AC50,[1],6.43 µM (active)
same,AC50,INS1,7.57 µM (active)
COc1cc(SC#N)ccc1/N=C/c1c(C)nn(-c2cccc3ccccc23)c1O,IC50,Large T antigen,14.1 µM (active)
same,EC50,[6],93.7 µM (active)
O=C1C2C3C=CC(C4CC34)C2C(=O)N1/N=C/c1ccc(-c2ccc(F)cc2[N+](=O)[O-])o1 (stereo not given),AC50,[1],1.08 µM (active)
COc1cc(/C=N/NC(=O)C2=NNC(=O)C2C)ccc1O (stereo not given),IC50,Large T antigen,26.7 µM (active)
same,IC50,[7],76.3 µM (active)
O=C(CSCc1cccc(Br)c1)N/N=C/c1ccc2c(c1)OCO2,AC50,[1],3 µM (active)
Nc1ccc(O)c(C(=O)O)c1 [MESALAMINE],IC50,Large T antigen,19.1 µM (active)
same,AC50,Cytochrome P450 2C9,12.6 µM (inconclusive)

# From ChEMBL document CHEMBL1201862, “PubChem BioAssay data set” (2004)
